“And” between values parts separate entries of the source, which are not always exact repeats. Equal entries are not always repeated.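 Interpolation was linear, between the two tested concentrations surrounding the appropriate level; five concentrations were tested over 48 hours in 96-well plates. The concentration for 50% growth inhibition is given as GI50. The concentration for full growth arrest is given as TGI.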
system: MDA-MB-468 breast; assay: NCI tumour cell line growth inhibition, 48 h

Row | Compound | GI50 | TGI
1 | COc1cc(-c2nn(-c3ccc(NC(=O)c4cc(Cl)cc(Cl)c4)cc3)cc2-c2ccncc2)ccc1Cl | > 100000 nM | > 100000 nM
2 | C=CCCC(=O)N1C=CC(=O)[C@H](O)[C@@H]1/C=C/c1ccccc1 | 5120 nM | 22300 nM
3 | CN1CCN(CCOc2ccc(-c3cnc4c(-c5ccc(F)cc5)cnn4c3)cc2)CC1 | 1540 nM | 3190 nM
4 | Nc1c(C(=O)Nc2cccc(Br)c2)sc2nc3c(cc12)C(O)CCC3 (stereo not given) | 237 nM | 31700 nM
5 | Cc1c(C(=O)O[C@H]2[C@@H]3[C@H](C)CC[C@H]3[C@]3(C)O[C@@]2(C2CCCCC2)C[C@H]3OC(=O)CO)ccc2ccccc12 | 8120 nM | 16100 nM
6 | c1ccc2nc(OCCN3CC3)ccc2c1 | 2770 nM | 7870 nM
7 | CC(=O)C1(O)Cc2c(O)c3c(c(O)c2C(OC2CC(N)C(O)C(C)O2)C1)C(=O)c1ccccc1C3=O (stereo not given) | 11.9 nM | 39.8 nM
8 | O=[N+]([O-])c1cc(F)c2cccnc2c1O | 14700 nM | 47200 nM
9 | CC(=O)N1CCN(CCOc2ccc(C3CCN(C4=Nn5c(nnc5C(F)(F)F)CC4)CC3)cc2)CC1 | 3720 nM | 61100 nM
10 | COc1cccc(C2=C(c3cn(C)c4cccc(OC)c34)C(=O)NC2=O)c1 | 6880 nM | > 25000 nM
11 | O=C(Nc1ccc(I)cc1F)c1cc(I)ccc1O | 808 nM | 2460 nM
12 | CCOC(=O)c1ccccc1-c1c2ccc(=[N+](C)C)cc-2oc2cc(N(C)C)ccc12 | 46.9 nM | 410 nM
13 | CCCCCCNC(=O)Oc1ccc(/C(=C(\C)c2ccccc2)c2ccc(OCCN(CC)CC)cc2)cc1 | 2920 nM | 9720 nM
14 | O=C(CCl)Nc1cc(O)c2c(c1)C(=O)c1cccc(O)c1C2=O | 1040 nM | 2860 nM
15 | OC(COc1cccc2ccccc12)CN1CCN(c2ccccc2Cl)CC1 (stereo not given) | 15300 nM | 30100 nM
16 | CCCCCc1c(C)[nH]c(/C=C2\N=C(c3ccc[nH]3)C=C2OCc2ccccc2)c1C | 96.9 nM and 23.5 nM | 764 nM and 268 nM
17 | COc1ccc(-c2c(N)n[nH]c2-c2cc(OC)c(OC)c(OC)c2)cc1 | 94.6 nM | 2870 nM
18 | COc1cc([C@@H]2c3cc4c(cc3C(OC3O[C@@H]5COC(C)O[C@H]5[C@H](O)[C@H]3O)C3COC(=O)[C@@H]32)OCO4)cc(OC)c1O (stereo not given in full) | 1100 nM | 4500 nM
19 | CC(C)(C)C(=O)OCc1nc2cc3c(cc2c(=O)[nH]1)CCC3=O | > 100000 nM | > 100000 nM

Row | Compound | GI50 | TGI
20 | COc1cccc(-c2cc(=O)c3cc(Cl)cnc3[nH]2)c1 | 886 nM | > 100000 nM
21 | CO[C@H](C(=O)O)[C@@H]1Cc2cc3cc(OC4CC(OC5CC(O)C(O)C(C)O5)C(O)C(C)O4)c(C)c(O)c3c(O)c2C(=O)[C@H]1OC1CC(OC2CC(OC3CC(C)(O)C(O)C(C)O3)C(O)C(C)O2)C(O)C(C)O1 (stereo not given in full) | 159 nM | 885 nM
22 | COc1ccc2[nH]c(O)c(/C=c3/cc4c(c(-c5ccc(F)cc5)n3)=Nc3ccccc3-4)c2c1 | 2220 nM | 5470 nM
23 | Oc1c(CN2CCOCC2)cc(COCc2ccccc2)c2cccnc12 | 2390 nM | 7190 nM
24 | CN(C)CCCOc1c2ccc(Cl)cc2nc2c1oc1ccc(Cl)cc12 | 2120 nM | 7030 nM
25 | CC(C)(C)Nc1nc2c(OCCc3ccccc3)cccn2c1-c1cccc(F)c1 | 3510 nM | 22900 nM
26 | Cn1ncc(-c2ccc3c(=O)[nH]nc(CN)c3c2)c1-c1c(F)cc2ccccc2c1C#N | 7020 nM | 21100 nM
27 | O=[As]c1ccc(C(=O)c2ccc(Oc3ccccc3)cc2)cc1 (stereo not given) | 26.6 nM | 101 nM
28 | CC1(C)[C@@H](OC(N)=O)C=C[C@]2(C=O)[C@H]3CC[C@]4(C)[C@@H](c5ccc(=O)oc5)[C@@H](Cl)C[C@]4(O)C3=CC[C@@H]12 | 6.13 nM | 16.1 nM
29 | CCOc1cc(C(C)(C)C)ccc1C1=N[C@@](C)(c2ccc(Cl)cc2)[C@@](C)(c2ccc(Cl)cc2)N1C(=O)N1CCN(CCS(C)(=O)=O)CC1 | 2100 nM | 6340 nM
30 | CC[C@H](NC(=O)[C@H](CS(=O)(=O)CC1CC1)N[C@@H](c1ccc(F)cc1)C(F)(F)F)C(=O)C(=O)NC1CC1 | 49900 nM | > 100000 nM
31 | O=C(O)C(=O)CBr | > 48300 nM and 16900 nM | > 72400 nM and 33300 nM
32 | CN(C)CCNc1nc2ccccc2c2c(=O)c3ccccc3sc12 | 1450 nM | 3310 nM
33 | COC(=O)[C@]12CC[C@@H](C)[C@H](C)[C@@H]1C1=CC[C@@H]3[C@@]4(C)CC(=O)[C@H](OC(=O)c5ccco5)[C@@]5(C)COC(=C45)C[C@@]3(C)[C@]1(C)CC2 | 420 nM | > 100000 nM
34 | C#Cc1cc2c(N)c(C(=O)c3cc(OC)c(OC)c(OC)c3)[nH]c2cc1OC | 497 nM | 43200 nM
35 | Oc1ccc(Cl)cc1-c1cc(-c2ccc(F)cc2)n[nH]1 | 1350 nM | 5350 nM
36 | CCCCOc1ccc(/C=N/Nc2cc(C)nc3ccc(Cl)cc23)cc1 | 1530 nM | 2970 nM
37 | CCCn1c(N)c(C(=O)CNc2ccc(I)cc2)c(=O)[nH]c1=O | – | > 100000 nM
38 | ClCC#CCSc1ncnc2c1ncn2CC#CCCl | 1430 nM | 3200 nM

Source: PubChem BioAssay (NCI)
